Activity calls are given as the source filed them.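 The calls were made as follows: active = compounds that cut viability of the normal-p53 cell line panel with an IC50 under 10 µM; inactive = IC50 above 10 µM.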
Tests used:
Assay in all cases: cell killing across TP53 wild-type lines, dose response, selectivity assay for cell-selective anticancer agent project, TP53 wild-type panel, dry powder (AID 743141)
[1] = test system: A549 viability, CellTiter-Glo luminescence, 48 h
[2] = test system: HCT116 viability, CellTiter-Glo luminescence, 48 h
[3] = test system: IMR90 viability, CellTiter-Glo luminescence, 48 h

SMILES	IC50 [1]	IC50 [2] [µM]	IC50 [3] [µM]
C[C@@H]1CC(=O)NN=C1c1ccc(-c2cncnc2)cc1	> 10 µM (inactive)	> 10	> 10
C[C@@H]1CC(=O)NN=C1c1ccc(N2CCOCC2)cc1	> 10 µM (inactive)	> 10	> 10
CCN1N=C(c2ccc(N(CC)CC)cc2)[C@H](C)CC1=O	> 10 µM (inactive)	> 10	> 10
CC(=O)Nc1ccc(C2=NNC(=O)C[C@H]2C)cc1	> 10 µM (inactive)	> 10	> 10
C[C@@H]1CC(=O)NN=C1c1ccc(F)c(F)c1	> 10 µM (inactive)	> 10	> 10
O=C1CN2Cc3c(ccc(Cl)c3Cl)N=C2N1	> 10 µM (inactive)	> 10	> 10
C[C@@H]1CC(=O)NN=C1c1ccc(N2CCOCC2)c(F)c1	> 10 µM (inactive)	> 10	> 10
C[C@H]1CC(=O)NN=C1c1ccc(N2CCOCC2)c(F)c1	> 10 µM (inactive)	> 10	> 10
C[C@@H]1CC(=O)NN=C1c1ccc(Cl)cc1	> 10 µM (inactive)	> 10	> 10
CCN(CC)c1ccc(C2=NNC(=O)CC2C)cc1[N+](=O)[O-] (stereo unspecified)	> 10 µM (inactive)	> 10	> 10
C[C@@H]1CC(=O)NN=C1c1ccc(C2CCCCC2)cc1	> 10 µM (inactive)	> 10	> 10
COc1cc2c(cc1OC)-c1cc(=Nc3c(C)cc(C)cc3C)n(C)c(=O)n1CC2	> 10 µM (inactive)	> 10	> 10

From PubChem BioAssay AID743141 (Broad Institute, 2013)
